Here are results for twelve molecules from patent US11492346B2, “Benzisoxazole sulfonamide derivatives” (Pfizer Inc., priority 2019, dated 2022).

Where two headings read alike, the source gives them in different places.

What all share (type): biochemical
The target of one test is KAT6A (Homo sapiens (Human), UniProt Q92794). Description: KAT assay (SAMDI mass spectrometry), KAT6A.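 Also: Baculovirus-expressed KAT6A acetylating histone H3 (1-21) peptide (2 µM), 30-60 min at room temperature, % product conversion fitted to Morrison equation for tight-binding competitive inhibitors.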
A further test deals with KAT6B (Homo sapiens (Human), UniProt Q8WYB5). Put plainly: KAT assay (SAMDI mass spectrometry), KAT6B.
The next test has as its target KAT7 (Homo sapiens (Human), UniProt O95251). Description: KAT assay (SAMDI mass spectrometry), KAT7.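 Also: Baculovirus-expressed enzyme acetylating a histone peptide at room temperature, percent conversion from product and substrate peak areas, Ki from a Morrison tight-binding competitive fit.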 The settings on record: read-out: KAT7 Ki at 1 μM AcCoA.
The target in another test is KAT8 (Homo sapiens (Human), UniProt Q9H7Z6). Description: KAT assay (SAMDI mass spectrometry), KAT8. The note with it: read-out: KAT8 Ki at 1 μM AcCoA.
The target of the next test is KAT5 (Homo sapiens (Human), UniProt Q92993). Put plainly: KAT assay (SAMDI mass spectrometry), KAT5.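 Also: Baculovirus-expressed KAT5 acetylating a histone H4 peptide at room temperature, read as percent conversion to product, Ki from a Morrison tight-binding competitive fit.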 The settings on record: read-out: KAT5 Ki at 1 μM AcCoA.
Setting [1] is: read-out: KAT6a Ki at 1 μM AcCoA, 1 μM AcCoA.
The mark [2] stands for this setting: 25 μM AcCoA, read-out: KAT6b Ki at 25 μM AcCoA.
The mark [3] stands for this setting: read-out: KAT6a Ki at 10 μM AcCoA, 10 μM AcCoA.

Sequence of KAT8 (Q9H7Z6 whole entry): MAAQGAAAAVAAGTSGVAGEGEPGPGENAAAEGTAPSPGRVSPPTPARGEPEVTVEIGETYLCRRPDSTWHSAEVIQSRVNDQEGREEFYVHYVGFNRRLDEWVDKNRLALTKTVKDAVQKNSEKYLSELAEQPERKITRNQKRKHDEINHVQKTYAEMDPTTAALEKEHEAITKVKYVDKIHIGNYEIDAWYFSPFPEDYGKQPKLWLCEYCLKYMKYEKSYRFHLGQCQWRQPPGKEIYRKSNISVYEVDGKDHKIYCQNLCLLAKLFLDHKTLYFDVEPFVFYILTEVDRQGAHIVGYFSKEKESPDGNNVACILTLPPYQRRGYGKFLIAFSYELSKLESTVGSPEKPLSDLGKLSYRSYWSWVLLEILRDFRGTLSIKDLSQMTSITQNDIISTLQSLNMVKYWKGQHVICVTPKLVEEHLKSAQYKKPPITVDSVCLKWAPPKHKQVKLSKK
Sequence of KAT7 (O95251 whole entry): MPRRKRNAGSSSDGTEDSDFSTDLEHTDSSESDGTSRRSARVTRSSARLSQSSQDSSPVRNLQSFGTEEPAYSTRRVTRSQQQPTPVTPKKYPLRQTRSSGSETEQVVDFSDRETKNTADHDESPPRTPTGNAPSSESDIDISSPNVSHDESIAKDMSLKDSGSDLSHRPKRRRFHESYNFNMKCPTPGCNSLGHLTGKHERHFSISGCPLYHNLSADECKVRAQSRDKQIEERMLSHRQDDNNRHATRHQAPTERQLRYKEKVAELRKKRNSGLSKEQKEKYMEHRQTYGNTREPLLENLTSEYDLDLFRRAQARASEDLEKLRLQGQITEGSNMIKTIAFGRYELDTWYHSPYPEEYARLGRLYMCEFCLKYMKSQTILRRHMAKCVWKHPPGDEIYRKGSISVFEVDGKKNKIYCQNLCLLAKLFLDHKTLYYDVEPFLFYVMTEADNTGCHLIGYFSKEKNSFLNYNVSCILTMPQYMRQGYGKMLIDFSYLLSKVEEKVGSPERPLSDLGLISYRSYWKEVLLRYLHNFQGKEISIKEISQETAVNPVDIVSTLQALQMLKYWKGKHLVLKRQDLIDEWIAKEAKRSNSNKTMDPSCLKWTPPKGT
Sequence of KAT6B (Q8WYB5 whole entry): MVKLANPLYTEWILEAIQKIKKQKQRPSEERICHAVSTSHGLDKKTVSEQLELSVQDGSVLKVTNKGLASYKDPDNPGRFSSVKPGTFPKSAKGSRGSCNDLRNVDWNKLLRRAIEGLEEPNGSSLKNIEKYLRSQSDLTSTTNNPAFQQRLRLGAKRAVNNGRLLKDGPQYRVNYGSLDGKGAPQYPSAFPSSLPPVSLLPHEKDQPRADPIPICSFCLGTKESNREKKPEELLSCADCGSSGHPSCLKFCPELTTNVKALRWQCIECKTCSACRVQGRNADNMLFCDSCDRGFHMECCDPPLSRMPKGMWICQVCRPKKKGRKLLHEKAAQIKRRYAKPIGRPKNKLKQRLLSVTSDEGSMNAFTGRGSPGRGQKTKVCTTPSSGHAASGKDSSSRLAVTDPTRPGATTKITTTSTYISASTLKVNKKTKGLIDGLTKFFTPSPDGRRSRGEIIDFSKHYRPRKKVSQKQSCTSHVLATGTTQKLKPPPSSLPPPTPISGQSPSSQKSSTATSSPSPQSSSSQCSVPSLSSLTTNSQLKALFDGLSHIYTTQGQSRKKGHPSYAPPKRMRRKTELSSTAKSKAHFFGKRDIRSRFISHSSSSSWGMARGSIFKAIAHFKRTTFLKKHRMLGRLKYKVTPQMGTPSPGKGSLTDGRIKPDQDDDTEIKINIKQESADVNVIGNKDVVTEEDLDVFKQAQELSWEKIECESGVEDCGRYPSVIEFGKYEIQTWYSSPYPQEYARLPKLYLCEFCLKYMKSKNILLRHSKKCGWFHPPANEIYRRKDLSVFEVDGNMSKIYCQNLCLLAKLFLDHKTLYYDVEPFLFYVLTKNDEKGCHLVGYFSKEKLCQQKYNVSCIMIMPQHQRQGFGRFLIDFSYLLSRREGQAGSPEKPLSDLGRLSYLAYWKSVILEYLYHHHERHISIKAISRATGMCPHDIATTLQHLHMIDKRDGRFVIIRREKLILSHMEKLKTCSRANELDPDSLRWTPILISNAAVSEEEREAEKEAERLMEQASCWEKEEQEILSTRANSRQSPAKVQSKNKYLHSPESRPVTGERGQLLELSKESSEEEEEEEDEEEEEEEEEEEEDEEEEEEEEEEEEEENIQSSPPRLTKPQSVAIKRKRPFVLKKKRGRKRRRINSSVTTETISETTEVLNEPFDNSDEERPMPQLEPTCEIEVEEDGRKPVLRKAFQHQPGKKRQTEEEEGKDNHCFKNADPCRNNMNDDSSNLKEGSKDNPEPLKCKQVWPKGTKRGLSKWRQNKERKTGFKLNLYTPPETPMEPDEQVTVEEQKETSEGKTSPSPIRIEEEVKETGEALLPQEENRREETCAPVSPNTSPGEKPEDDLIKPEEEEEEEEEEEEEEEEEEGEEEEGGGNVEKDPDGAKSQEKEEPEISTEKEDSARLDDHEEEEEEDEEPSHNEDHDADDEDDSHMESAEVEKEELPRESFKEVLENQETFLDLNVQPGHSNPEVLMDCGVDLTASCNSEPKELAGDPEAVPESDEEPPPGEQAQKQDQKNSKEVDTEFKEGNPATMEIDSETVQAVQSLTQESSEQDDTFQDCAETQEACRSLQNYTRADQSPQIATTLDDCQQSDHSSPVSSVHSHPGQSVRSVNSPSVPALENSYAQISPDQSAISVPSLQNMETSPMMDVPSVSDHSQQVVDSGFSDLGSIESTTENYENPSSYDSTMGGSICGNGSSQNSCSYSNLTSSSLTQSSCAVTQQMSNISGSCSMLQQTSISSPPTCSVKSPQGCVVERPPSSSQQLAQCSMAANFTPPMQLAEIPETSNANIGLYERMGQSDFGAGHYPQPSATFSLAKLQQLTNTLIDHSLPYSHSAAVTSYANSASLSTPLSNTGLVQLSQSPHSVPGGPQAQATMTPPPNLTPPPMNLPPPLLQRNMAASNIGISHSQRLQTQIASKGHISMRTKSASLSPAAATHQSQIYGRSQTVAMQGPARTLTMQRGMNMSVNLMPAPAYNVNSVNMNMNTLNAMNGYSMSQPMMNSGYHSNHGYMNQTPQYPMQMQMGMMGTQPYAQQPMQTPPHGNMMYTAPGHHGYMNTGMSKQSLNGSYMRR
Sequence of KAT5 (Q92993 whole entry): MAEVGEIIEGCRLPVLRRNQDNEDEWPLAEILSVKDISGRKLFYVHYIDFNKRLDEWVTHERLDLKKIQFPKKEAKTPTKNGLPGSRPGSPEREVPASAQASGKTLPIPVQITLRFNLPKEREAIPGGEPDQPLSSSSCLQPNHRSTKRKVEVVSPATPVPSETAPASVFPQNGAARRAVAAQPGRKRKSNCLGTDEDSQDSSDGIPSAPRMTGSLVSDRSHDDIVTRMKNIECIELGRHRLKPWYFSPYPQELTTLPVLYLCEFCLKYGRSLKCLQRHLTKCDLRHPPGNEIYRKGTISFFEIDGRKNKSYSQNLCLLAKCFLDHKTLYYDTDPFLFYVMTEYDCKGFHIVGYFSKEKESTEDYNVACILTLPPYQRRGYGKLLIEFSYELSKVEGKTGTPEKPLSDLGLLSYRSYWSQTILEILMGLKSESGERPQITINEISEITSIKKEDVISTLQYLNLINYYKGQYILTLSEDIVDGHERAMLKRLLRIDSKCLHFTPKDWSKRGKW
Method for KAT5: (§1) Prepare 10 mM stock solutions in 100% DMSO from solid material • 2. Serial dilute 10 mM, 1 mM or 0.1 mM compound stocks 3-fold in 100% DMSO for 11-point dose response
(§2) Prepare 1× assay buffer containing 10 mM Tris HCL pH 8.0, 2.5 mM NaCl, 0.5 mM EDTA, 0.005% BSG and 0.02% Tween-20 • 2. Dilute Histone peptide (CPC Scientific) and AcCoA (Sigma) together in assay buffer to 2×. • 3. Dilute KAT enzyme in assay buffer to 2×.
(§3) Enzyme reaction • 1. Final reaction conditions for each KAT assay in a 20 ul assay reaction volume: • i. KAT5 25 nM, 1 uM AcCoA, 2 uM H4 1-21 peptide, 30-minute reaction • ii. KAT6A 15 nM, 1 uM AcCoA, 2 uM H3 1-21 peptide, 45-minute reaction • iii. KAT6B 25 nM, 1 uM AcCoA, 2 uM H3 1-21 peptide, 60-minute reaction • iv. KAT7 12.5 nM, 1 uM AcCoA, 2 uM H3 1-21 peptide, 45-minute reaction • v. KAT8 15 nM, 1 uM AcCoA, 2 uM H3 1-21 peptide, 45-minute reaction • 2. Add 0.5 ul of diluted compound to the assay plate (384-well V-bottom polypropylene plates) or 0.5 ul of DMSO for control wells. • 3. Add 10 ul of 2× Histone peptide/2×AcCoA mix to the assay plate. • 4. Add 10 ul of 2× enzyme to the assay plate. • 5. Stop the reaction after the indicated time with the addition of 2 ul of 5% formic acid • 6. Each reaction was analyzed using self-assembled monolayer desorption/ionization time-of-flight mass spectrometry (Mrksich, Milan (2008) Mass Spectrometry of Self-Assembled Monolayers: A New Tool for Molecular Surface Science ACS Nano 2008 2 (1), 7-18; SAMDI Tech, Inc. (Chicago, Ill.)). • 7. Area under the curve (AUC) for both substrate and product peaks was determined for KAT5 at M.W. 2561 [Substrate+H]^+ and 2603 [Product+H]^+ with a +/−1 Da tolerance, respectively • 8. Area under the curve (AUC) for both substrate and product peaks was determined for KAT6a, KAT6B, KAT7 and KAT8 at M.W. 2723 [Substrate+H]^+ and 2765 [Product+H]^+ with a +/−1 Da tolerance, respectively. […] Percent conversion to product was calculated by: AUCProduct/(AUCsubstrate+AUCProduct).
(§4) IC50 values were determined by fitting the % conversion at each inhibitor concentration to the 4-parameter IC50 equation using Pfizer proprietary curve fitting software. • 2. Ki values were determined by fitting the % conversion at each inhibitor concentration to the Morrison equation for tightbinding competitive inhibitors using Pfizer proprietary curve fitting software.
(§5) KAT enzymes were expressed using a baculovirus expression system and purified at Pfizer, La Jolla. […] Acetyl coenzyme A was purchased from Sigma-Aldrich (St. Louis, Mo.). All other biochemical reagents were purchased from Sigma-Aldrich or ThermoFisher Scientific (Waltham, Mass.).
(§6) KAT assays were performed at room temperature in assay buffer containing 1 μM AcCoA, 2 μM histone peptide, 10 mM Tris HCL pH 8.0, 2.5 mM NaCl, 0.5 mM EDTA, 0.005% BSG and 0.02% Tween-20. 10 ul of 2× Histone peptide/AcCoA mix was added to a 384-well V-bottom polypropylene assay plate containing 0.5 ul of serially diluted test compound in 100% dimethyl sulfoxide (DMSO). To start the reaction, 10 ul of 2× enzyme solution was added to the assay plate. KAT assays were terminated after 30-60 minutes with the addition of 2 ul of 5% formic acid. All assays used histone H3 (1-21) peptide except for the KAT5 assay which used histone H4 (1-21) peptide. The final enzyme concentration for each KAT was as follows: KAT5, 25 nM; KAT6A, 15 nM; KAT6B, 25 nM; KAT7, 12.5 nM; KAT8 15 nM. Each reaction was analyzed using self-assembled monolayer desorption/ionization time-of-flight mass spectrometry (Mrksich, Milan (2008) Mass Spectrometry of Self-Assembled Monolayers: A New Tool for Molecular Surface Science ACS Nano 2008 2 (1), 7-18; SAMDI Tech, Inc. (Chicago, Ill.)).
(§7) Area under the curve (AUC) for both substrate and product peaks was determined for KAT5 at M.W. 2561 [Substrate+H]^+ and 2603 [Product+H]^+ with a +/−1 Da tolerance, respectively.
Method for KAT6A: as §1, §2, §3, §4, §5, §6, §7
Method for KAT6B: as §1, §2, §3, §4, §5, §6, §7
Method for KAT8: as §1, §2, §3, §4, §5, §6, §7

Turning to `COc1ccc(OC)c(S(=O)(=O)Nc2noc3cc(Cn4cccn4)cc(OC)c23)c1` [Example 19], the Ki on KAT6A (setting [1]) was determined as 0.00218 µM; on KAT6B (setting [2]) it was 0.00344 µM; at KAT7, 0.15 µM; at KAT8, 0.96 µM; on KAT5, 0.8 µM.
Take `COc1cccc(OC)c1S(=O)(=O)Nc1noc2cc(Cn3cccn3)cc(OC3CC3)c12` [Example 11]: the Ki on KAT6A (setting [1]) came to 0.00286 µM; on KAT6A (setting [3]), 0.00557 µM; on KAT6B (read-out: KAT6b Ki at 1 μM AcCoA, 1 μM AcCoA), 0.0146 µM; at KAT7, 5.96 µM; on KAT8 it was 3.26 µM; at KAT5, 12.5 µM.
As to `COc1cc(Cn2cccn2)cc2onc(NS(=O)(=O)c3cc(C)c(F)c(C)c3)c12` [Example 78], the Ki at KAT6A (setting [1]) is 0.00564 µM; at KAT6A (setting [3]) it was 0.00573 µM; at KAT6B (setting [2]) it was 0.026 µM; on KAT7 it was 0.54 µM; on KAT8 it was 12.5 µM; at KAT5, 9.92 µM.
With `COc1cc(Cn2cccn2)cc2onc(NS(=O)(=O)c3ccc(C)cc3F)c12` [Example 65], the Ki at KAT6A (setting [1]) was determined as 0.00604 µM; at KAT6A (setting [3]) it was 0.00444 µM; on KAT6B (setting [2]), 0.0121 µM; on KAT7, 0.22 µM; at KAT8 it was 12.5 µM; on KAT5 it was 3.06 µM.
For the molecule `COc1cc(Cn2cccn2)cc2onc(NS(=O)(=O)c3ccc(C)c(F)c3)c12` [Example 79], the Ki was found to be 0.00511 µM at KAT6A (setting [1]); 0.00498 µM at KAT6A (setting [3]); 0.00427 µM at KAT6B (setting [2]); 0.22 µM on KAT7; 3.26 µM at KAT8; 1.44 µM on KAT5.
As to `COc1cccc(OC)c1S(=O)(=O)Nc1noc2cc(Cn3cccn3)c(C)cc12` [Example 27], the Ki was 0.00117 µM at KAT6A (setting [1]); 0.00068 µM on KAT6A (setting [3]); 0.00239 µM on KAT6B (setting [2]); 0.05 µM at KAT7; 0.53 µM on KAT8; 0.22 µM at KAT5.
As for `COc1cccc(OC)c1S(=O)(=O)Nc1noc2cc(Cn3cccn3)cc(F)c12` [Example 94], the Ki at KAT6A (setting [1]) is 0.00515 µM; at KAT6B (setting [2]) it was 0.0025 µM; at KAT7, 0.63 µM; on KAT8 it was 3.26 µM; on KAT5, 3.64 µM.
With `COc1ccc(C2CC2)cc1S(=O)(=O)Nc1noc2cc(Cn3cccn3)cc(OC)c12` [Example 97, 5-cyclopropyl-2-methoxy-N-{4-methoxy-6-[(1H-pyrazol-1-yl)methyl]-1,2-benzoxazol-3-yl}benzene-1-sulfonamide], the inhibition constant Ki worked out at 0.0011 µM on KAT6A (setting [1]); 0.00274 µM on KAT6B (setting [2]); 0.12 µM on KAT7; 1.51 µM at KAT8; 1.03 µM at KAT5.
For the molecule `COc1cc(Cn2cccn2)cc2onc(NS(=O)(=O)c3ccc(C)c(C)c3)c12` [Example 72], the Ki at KAT6A (setting [1]) was 0.00286 µM; at KAT6A (setting [3]), 0.00236 µM; on KAT6B (setting [2]) it was 0.00697 µM; on KAT7, 0.14 µM; at KAT8 it was 12.5 µM; on KAT5, 2.96 µM.
`COc1cccc(OC)c1S(=O)(=O)Nc1noc2cc(Cn3cccn3)ccc12` [Example 28]: the Ki on KAT6A (setting [1]) is 0.0044 µM; on KAT6B (setting [2]) it was 0.00506 µM; on KAT7 it was 0.45 µM; at KAT8, 3.26 µM; at KAT5 it was 3.05 µM.
As to `COc1ccc(C(C)C)cc1S(=O)(=O)Nc1noc2cc(Cn3cccn3)cc(OC)c12` [Example 18], the Ki on KAT6A (setting [1]) was 0.00083 µM; at KAT6A (setting [3]), 0.00038 µM; on KAT6B (setting [2]), 0.00096 µM; at KAT7, 0.12 µM; at KAT8 it was 0.1 µM; at KAT5 it was 0.13 µM.
With `COc1cc(Cn2cccn2)cc2onc(NS(=O)(=O)c3cccc(C)c3F)c12` [Example 70], the Ki on KAT6A (setting [1]) came to 0.00228 µM; at KAT6A (setting [3]) it was 0.00327 µM; on KAT6B (setting [2]), 0.0019 µM; at KAT7, 0.14 µM; on KAT8, 3.26 µM; at KAT5, 0.41 µM.
